What was measured:
Cathepsin K = target: T1, Cathepsin K (Homo sapiens, UniProt P43235); test: Inhibition of human recombinant cathepsin K
T1 sequence (P43235 whole entry): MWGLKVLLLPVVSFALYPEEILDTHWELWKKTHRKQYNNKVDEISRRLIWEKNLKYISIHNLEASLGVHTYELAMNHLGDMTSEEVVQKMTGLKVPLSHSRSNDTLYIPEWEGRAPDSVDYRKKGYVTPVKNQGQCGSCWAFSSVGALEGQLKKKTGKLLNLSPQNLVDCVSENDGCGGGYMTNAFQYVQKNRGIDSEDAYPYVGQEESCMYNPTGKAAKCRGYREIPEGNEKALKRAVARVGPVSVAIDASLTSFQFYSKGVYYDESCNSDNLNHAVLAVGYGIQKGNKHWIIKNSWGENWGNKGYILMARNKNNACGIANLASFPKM

Procathepsin L = Procathepsin L (Homo sapiens, UniProt P07711); test: Inhibition of human recombinant cathepsin L
Cathepsin B = Cathepsin B (Homo sapiens, UniProt P07858); test: Inhibition of human recombinant cathepsin B
RAW264.7 = test: Inhibition of RANKL-induced bone resorption of multinucleated osteoclasts from mouse RAW264.7 cells by pit formation assay; assay type: functional, cell-based
Macrophage = test: Inhibition of RANKL-induced bone resorption of multinucleated osteoclasts from BALB/c mouse bone marrow-derived macrophages by pit formation assay; assay type: functional, cell-based

Sequence of Procathepsin L (P07711 whole entry): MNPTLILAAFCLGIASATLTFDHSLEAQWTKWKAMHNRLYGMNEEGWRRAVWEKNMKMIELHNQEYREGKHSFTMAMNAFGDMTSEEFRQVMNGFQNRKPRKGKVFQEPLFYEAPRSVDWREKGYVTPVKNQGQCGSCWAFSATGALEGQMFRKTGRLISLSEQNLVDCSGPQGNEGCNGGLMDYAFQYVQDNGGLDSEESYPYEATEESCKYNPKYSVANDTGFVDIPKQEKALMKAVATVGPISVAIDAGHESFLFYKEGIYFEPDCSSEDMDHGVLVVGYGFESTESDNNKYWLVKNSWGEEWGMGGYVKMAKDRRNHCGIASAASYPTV

Compound	IC50 (Cathepsin K)	IC50 (Procathepsin L)	IC50 (Cathepsin B)	Activity (RAW264.7)	Activity (Macrophage)
CC(C)C(Nc1ccccc1)C(=O)N1CCCCN1C#N (stereo unspecified)	25 nM	625 nM	53 nM	–	–
CC(C)C(NC(=O)OCc1ccccc1)C(=O)N1CCCCN1C#N (stereo unspecified)	1 nM	145 nM	11 nM	Dose-dependent effect	Dose-dependent effect
CC(C)C(Nc1cccc(C#N)c1)C(=O)N1CCCCN1C#N (stereo unspecified)	4 nM	730 nM	40 nM	–	–
CC(C)C(NC(=O)OC(C)(C)C)C(=O)N1CCCCN1C#N (stereo unspecified)	55 nM	130 nM	38 nM	–	–

The next lines start with results.

IC50 (Cathepsin K)	IC50 (Procathepsin L)	IC50 (Cathepsin B)	Compound	Activity (RAW264.7)	Activity (Macrophage)
24 nM	610 nM	110 nM	CC(C)C(Nc1ccc(Cl)cc1)C(=O)N1CCCCN1C#N (stereo unspecified)	–	–
23 nM	48 nM	23 nM	CC(C)C(Nc1cccc(C(F)(F)F)c1)C(=O)N1CCCCN1C#N (stereo unspecified)	–	–
6 nM	355 nM	32 nM	Cc1cccc(NC(C(=O)N2CCCCN2C#N)C(C)C)c1 (stereo unspecified)	–	–
11 nM	240 nM	32 nM	CC(C)C(Nc1cccc(Cl)c1)C(=O)N1CCCCN1C#N (stereo unspecified)	–	–
